We go through one compound from patent US9399904B2, “Oil recovery system and method” (SHELL OIL COMPANY, priority 2013, dated 2016).

The data set can be described thus: Oil recovery from oil saturated formation core by brine displacement followed by DMS displacement. As to conditions: after waterflooding with brine. As for the experimental part: Incremental recovery of oil from a formation core using an oil recovery formulation consisting of dimethyl sulfide following oil recovery from the core by water-flooding was measured to evaluate the effectiveness of DMS as a tertiary oil recovery agent.
Two 5.02 cm long Berea sandstone cores with a core diameter of 3.78 cm and a permeability between 925 and 1325 mD were saturated with a brine having a composition as set forth in Table 7.
After saturation of the cores with brine, the brine was displaced by a Middle Eastern Asphaltic crude oil having the characteristics as set forth above in Table 3 to saturate the cores with oil.
Oil was recovered from each oil saturated core by the addition of brine to the core under pressure and by subsequent addition of DMS to the core under pressure. Each core was treated as follows to determine the amount of oil recovered from the core by addition of brine followed by addition of DMS. Oil was initially displaced from the core by addition of brine to the core under pressure. A confining pressure of 1 MPa was applied to the core during addition of the brine, and the flow rate of brine to the core was set at 0.05 ml/min. The core was maintained at a temperature of 50° C. during displacement of oil from the core with brine. […]

On to `CSC` [Dimethyl Sulfide, dimethyl sulfide], for which the “oil recovered, of the oil remaining in the core after the waterflood” value is recorded as “approximately 60%”.
